Data: article PMC12501004

Experiment: intramolecular Trp triplet quenching by Cys (photoinduced electron transfer, contact formation) in full-length measles virus NTAIL single C-W variants; nanosecond transient absorption (289 nm pump, 458 nm probe); tau_CW from 1/tau_CW = 1/tau_obs - 1/tau_0
Settings: aqueous buffer: 15 mM Tris, 150 mM NaCl, 1 mM TCEP, pH 7.6, N2O-saturated; 0.1 mM; 20.0 °C; scale: us

Substance: H-GSTTEDKICRAVGPRQAQVSFLHGDQSENELPRLGGKEDRRVKQSRGEARESWRETGPSRASDARAAHLPTGTPLDIDTASESSQDPQDSRRSADALLRLQAMAGISEEQGSDTDTPIVYNDRNLLD-OH
- ring closure, rate: 6.63

Substance: H-GSTTEDKISRAVGPRQAQVSFLHGDQSENELPRLGGKEDRRVKQSRGEARESYRETGPSRASDARAAHLPTGTPLDIDTASESSQDPQDCRRSADALLRLQAMAGISEEQGSDTDTPIVWNDRNLLD-OH
- ring closure, rate: 2.76

Substance: H-GSTTEDKISRAVGPRQAQVSFLHGDQCENELPRLGGKEDRRVKQSRGEARESWRETGPSRASDARAAHLPTGTPLDIDTASESSQDPQDSRRSADALLRLQAMAGISEEQGSDTDTPIVYNDRNLLD-OH
- ring closure, rate: 3.1

Substance: H-GSTTEDKISRAVGPRQAQVSFLHGDQSENELPRLGGKEDRRVKQSRGEARESWRETGPSRASDARAAHLPTGTPLDIDTASESCQDPQDSRRSADALLRLQAMAGISEEQGSDTDTPIVYNDRNLLD-OH
- ring closure, rate: 3.21

Substance: H-GSTTEDKISRAVGPRQAQVSFLHGDQSENELPRLGGKEDRRVKQSRGEARESYRETGPSRASDARAAHLPTGTPLDIDTASESCQDPQDSRRSADALLRLQAMAGISEEQGSDTDTPIVWNDRNLLD-OH
- ring closure, rate: 7.6
